# Results reported in patent US20130296372A1, “USE OF PRO-[…] UK-2A FOR CONTROL OF SOYBEAN RUST” (DOW AGROSCIENCES LLC, priority 2012, published 2013).
# Tested on: soybean Asian rust—Phakopsora pachyrhizi (PHAKPA)
# Experiment: Efficacy on soybean rust: greenhouse soybean plants sprayed, then inoculated with spore suspension
# Assay type: in vivo, Phakopsora pachyrhizi on soybean plants
# Conditions: pre-inoculation; for PHAKPA Control % 14 DAA: 14 days after application; for PHAKPA Control % 12 DAA: 12 days after application
# Procedure: Soybean plants were inoculated with an aqueous spore suspension of the fungal pathogen (soybean Asian rust—Phakopsora pachyrhizi) at 2 h and 24 h post compound application. Additionally, infected untreated plants with sporulating lesions were placed among the test pots throughout the duration of the tests. The soybean plants were propagated from seed in a greenhouse, at a density of 3 seeds per pot containing a sandy loam. The plants were sprayed at growth stage V2 to V3 (2-3 trifoliates developed) and subsequently inoculated with the pathogen at the time intervals indicated above. Following inoculation, the plants were maintained under conditions of high humidity and at 26° C. to support spore germination and host leaf colonization. Assessments were made 12-15 days after inoculation. Aliquots of a 10% SC formulation of Compound I were diluted into water to achieve spray solutions containing 25, 100 and 400 ppm of the active ingredient. The spray solutions were also supplemented with either Trycol 5941 or one of several alternative adjuvant chemistries. Treatment solutions were sprayed to run-off using a hand held sprayer.
# [1] = 400 ppm Compound I + Trycol 5941 0.2 % v/v
smiles,measurement,setting,value
COc1ccnc(C(=O)N[C@H]2COC(=O)[C@H](Cc3ccccc3)[C@@H](OC(=O)C(C)C)[C@H](C)OC2=O)c1OCOC(=O)C(C)C [Compound I],PHAKPA Control % 14 DAA,25 ppm Compound I + Trycol 5941 0.2 % v/v,D (1-25)
same,PHAKPA Control % 14 DAA,100 ppm Compound I + Trycol 5941 0.2 % v/v,C (26-50)
same,PHAKPA Control % 12 DAA,400 ppm Compound I + Agbem 0.2 % v/v,B (51-75)
same,PHAKPA Control % 12 DAA,400 ppm Compound I + Agral 0.2 % v/v,B (51-75)
same,PHAKPA Control % 12 DAA,400 ppm Compound I + Aterbane 0.2 % v/v,B (51-75)
same,PHAKPA Control % 12 DAA,400 ppm Compound I + Joint 0.2 % v/v,A (76-100)
same,PHAKPA Control % 12 DAA,400 ppm Compound I + Nimbus 0.2 % v/v,A (76-100)
same,PHAKPA Control % 12 DAA,[1],B (51-75)
same,PHAKPA Control % 14 DAA,[1],A (76-100)
same,PHAKPA Control % 12 DAA,400 ppm Compound I + Vegetable Oil 0.2 % v/v,A (76-100)
